Results from the NIST ThermoML archive (doi:10.1016/j.jct.2012.09.016).

What was measured:
[1] = Liquid, Vibrating tube method
[2] = molar heat capacity at constant pressure; settings: Liquid, Small sample (50 mg) DSC

CCCCCN [1-pentanamine]
Settings | mass density, [1] [kg/m3] | molar heat capacity at constant pressure, [2] [J/K/mol]
293.15 K, 100 kPa | 754 | –
293.15 K, 10000 kPa | 760.8 | –
293.15 K, 20000 kPa | 767.2 | –
293.15 K, 30000 kPa | 773.3 | –
293.15 K, 40000 kPa | 779 | –
293.15 K, 50000 kPa | 784.3 | –
293.15 K, 60000 kPa | 789.3 | –
293.15 K, 70000 kPa | 794 | –
293.15 K, 80000 kPa | 798.5 | –
293.15 K, 90000 kPa | 802.9 | –
293.15 K, 100000 kPa | 806.9 | –
293.15 K, 110000 kPa | 810.9 | –
293.15 K, 120000 kPa | 814.6 | –
293.15 K, 130000 kPa | 818.2 | –
293.15 K, 140000 kPa | 821.8 | –
313.15 K, 100 kPa | – | 221.7
313.15 K, 20000 kPa | – | 219.7
313.15 K, 40000 kPa | – | 218.3
313.15 K, 60000 kPa | – | 217.9
323.15 K, 100 kPa | – | 222.7
323.15 K, 20000 kPa | – | 220.1
323.15 K, 40000 kPa | – | 218.7
323.15 K, 60000 kPa | – | 218.3
333.15 K, 100 kPa | – | 223.9
333.15 K, 20000 kPa | – | 220.8
333.15 K, 40000 kPa | – | 219.4
333.15 K, 60000 kPa | – | 218.9
343.15 K, 100 kPa | – | 225.3
343.15 K, 20000 kPa | – | 221.8
343.15 K, 40000 kPa | – | 220.5
343.15 K, 60000 kPa | – | 219.8
353.15 K, 100 kPa | 698.5 | 226.9
353.15 K, 10000 kPa | 709.4 | –
353.15 K, 20000 kPa | 718.5 | 223.3
353.15 K, 30000 kPa | 726.8 | –
353.15 K, 40000 kPa | 734.3 | 221.8
353.15 K, 50000 kPa | 741.2 | –
353.15 K, 60000 kPa | 747.6 | 221.1
353.15 K, 70000 kPa | 753.6 | –
353.15 K, 80000 kPa | 759.3 | –
353.15 K, 90000 kPa | 764.7 | –
353.15 K, 100000 kPa | 769.8 | –
353.15 K, 110000 kPa | 774.5 | –
353.15 K, 120000 kPa | 779 | –
353.15 K, 130000 kPa | 783.5 | –
353.15 K, 140000 kPa | 787.7 | –
363.15 K, 100 kPa | 688.6 | –
363.15 K, 10000 kPa | 700.1 | –
363.15 K, 20000 kPa | 710 | 225.1
363.15 K, 30000 kPa | 718.7 | –
363.15 K, 40000 kPa | 726.6 | 223.5
363.15 K, 50000 kPa | 733.9 | –
363.15 K, 60000 kPa | 740.6 | 222.6
363.15 K, 70000 kPa | 746.9 | –
363.15 K, 80000 kPa | 752.8 | –
363.15 K, 90000 kPa | 758.5 | –
363.15 K, 100000 kPa | 763.7 | –
363.15 K, 110000 kPa | 768.7 | –
363.15 K, 120000 kPa | 773.4 | –
363.15 K, 130000 kPa | 777.9 | –
363.15 K, 140000 kPa | 782.1 | –
373.15 K, 100 kPa | 679 | –
373.15 K, 10000 kPa | 691.5 | –
373.15 K, 20000 kPa | 702 | 227.4
373.15 K, 30000 kPa | 711.3 | –
373.15 K, 40000 kPa | 719.6 | 225.5
373.15 K, 50000 kPa | 727.1 | –
373.15 K, 60000 kPa | 734.1 | 224.5
373.15 K, 70000 kPa | 740.5 | –
373.15 K, 80000 kPa | 746.7 | –
373.15 K, 90000 kPa | 752.3 | –
373.15 K, 100000 kPa | 757.6 | –
373.15 K, 110000 kPa | 762.7 | –
373.15 K, 120000 kPa | 767.6 | –
373.15 K, 130000 kPa | 772.2 | –
373.15 K, 140000 kPa | 776.6 | –
383.15 K, 10000 kPa | 682.6 | –
383.15 K, 20000 kPa | 693.8 | 230
383.15 K, 30000 kPa | 703.7 | –
383.15 K, 40000 kPa | 712.3 | 227.8
383.15 K, 50000 kPa | 720.3 | –
383.15 K, 60000 kPa | 727.5 | 226.6
383.15 K, 70000 kPa | 734.3 | –
383.15 K, 80000 kPa | 740.6 | –
383.15 K, 90000 kPa | 746.5 | –
383.15 K, 100000 kPa | 752 | –
383.15 K, 110000 kPa | 757.2 | –
383.15 K, 120000 kPa | 762.2 | –
383.15 K, 130000 kPa | 766.8 | –
383.15 K, 140000 kPa | 771.4 | –
393.15 K, 10000 kPa | 673.1 | –
393.15 K, 20000 kPa | 685.2 | 232.9
393.15 K, 30000 kPa | 695.5 | –
393.15 K, 40000 kPa | 704.7 | 230.4
393.15 K, 50000 kPa | 713.2 | –
393.15 K, 60000 kPa | 720.8 | 229
393.15 K, 70000 kPa | 727.9 | –
393.15 K, 80000 kPa | 734.4 | –
393.15 K, 90000 kPa | 740.3 | –
393.15 K, 100000 kPa | 746 | –
393.15 K, 110000 kPa | 751.4 | –
393.15 K, 120000 kPa | 756.5 | –
393.15 K, 130000 kPa | 761.4 | –
393.15 K, 140000 kPa | 766 | –
403.15 K, 10000 kPa | 664.1 | –
403.15 K, 20000 kPa | 677 | 236.3
403.15 K, 30000 kPa | 687.8 | –
403.15 K, 40000 kPa | 697.3 | 233.3
403.15 K, 50000 kPa | 705.9 | –
403.15 K, 60000 kPa | 713.9 | 231.8
403.15 K, 70000 kPa | 721 | –
403.15 K, 80000 kPa | 727.8 | –
403.15 K, 90000 kPa | 734 | –
403.15 K, 100000 kPa | 739.9 | –
403.15 K, 110000 kPa | 745.4 | –
403.15 K, 120000 kPa | 750.7 | –
403.15 K, 130000 kPa | 755.7 | –
403.15 K, 140000 kPa | 760.5 | –
